# Measurements: the supplement of paper PMC10307832
# Legend:
# Test in all cases: relative viability (nuclei count vs DMSO), 5 days (fraction); higher = more cells survive
# NCI-H2085 = test system: NCI-H2085
# Method in brief: (§1)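 Relative viability was taken as the ratio of nuclei in treated wells to nuclei in vehicle wells. Lung cancer cell lines in 1536-well plates received compounds by pin tool one day after seeding, either one drug alone or a fixed anchor-drug dose plus five library-drug doses (not always all listed) in √10 steps. Nuclei were counted on 4× images after 5 days of treatment, and values are medians of duplicate plates.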
# NCI-H1648 = test system: NCI-H1648
# Method in brief: as §1
# NCI-H3122 = test system: NCI-H3122
# Method in brief: as §1
# HCC-44 = test system: HCC-44
# Method in brief: as §1
# HCC-366 = test system: HCC-366
# Method in brief: as §1
# LOU-NH91 = test system: LOU-NH91
# Method in brief: as §1
# LXF-289 = test system: LXF-289
# Method in brief: as §1
# NCI-H1623 = test system: NCI-H1623
# Method in brief: as §1
# NCI-H1437 = test system: NCI-H1437
# Method in brief: as §1
structure (smiles),measurement,setting,value
CC(=O)O[C@@]12CO[C@@H]1C[C@H](O)[C@@]1(C)C(=O)[C@H](O)C3=C(C)[C@@H](OC(=O)[C@H](O)[C@@H](NC(=O)OC(C)(C)C)c4ccccc4)C[C@@](O)([C@@H](OC(=O)c4ccccc4)[C@H]21)C3(C)C [Docetaxel] + COc1cccc2cc(-c3nc([C@H]4CC[C@H](C(=O)O)CC4)n4ncnc(N)c34)[nH]c12 [OSI-027] (partner 0.5 µM),relative viability,NCI-H2085; first compound 0.0002 µM,0.718
same,relative viability,NCI-H2085; first compound 0.000632 µM,0.706
same,relative viability,NCI-H2085; first compound 0.002 µM,0.433
same,relative viability,NCI-H2085; first compound 0.006325 µM,0.316
same,relative viability,NCI-H2085; first compound 0.02 µM,0.272
same,relative viability,NCI-H1648; first compound 0.0002 µM,0.28
same,relative viability,NCI-H1648; first compound 0.000632 µM,0.267
same,relative viability,NCI-H1648; first compound 0.002 µM,0.232
same,relative viability,NCI-H1648; first compound 0.006325 µM,0.218
same,relative viability,NCI-H1648; first compound 0.02 µM,0.248
same,relative viability,NCI-H3122; first compound 0.0002 µM,0.932
same,relative viability,NCI-H3122; first compound 0.000632 µM,0.861
same,relative viability,NCI-H3122; first compound 0.002 µM,0.227
same,relative viability,NCI-H3122; first compound 0.006325 µM,0.168
same,relative viability,NCI-H3122; first compound 0.02 µM,0.118
same,relative viability,HCC-44; first compound 0.0002 µM,0.533
same,relative viability,HCC-44; first compound 0.000632 µM,0.591
same,relative viability,HCC-44; first compound 0.002 µM,0.269
same,relative viability,HCC-44; first compound 0.006325 µM,0.294
same,relative viability,HCC-44; first compound 0.02 µM,0.16
same,relative viability,HCC-366; first compound 0.0002 µM,0.917
same,relative viability,HCC-366; first compound 0.000632 µM,0.553
same,relative viability,HCC-366; first compound 0.002 µM,0.0467
same,relative viability,HCC-366; first compound 0.006325 µM,0.0385
same,relative viability,HCC-366; first compound 0.02 µM,0.0274
same,relative viability,LOU-NH91; first compound 0.0002 µM,0.698
same,relative viability,LOU-NH91; first compound 0.000632 µM,0.733
same,relative viability,LOU-NH91; first compound 0.002 µM,0.466
same,relative viability,LOU-NH91; first compound 0.006325 µM,0.344
same,relative viability,LOU-NH91; first compound 0.02 µM,0.3
same,relative viability,LXF-289; first compound 0.0002 µM,0.819
same,relative viability,LXF-289; first compound 0.000632 µM,0.652
same,relative viability,LXF-289; first compound 0.006325 µM,0.117
same,relative viability,LXF-289; first compound 0.02 µM,0.067
same,relative viability,NCI-H1623; first compound 0.0002 µM,0.391
same,relative viability,NCI-H1623; first compound 0.000632 µM,0.438
same,relative viability,NCI-H1623; first compound 0.002 µM,0.339
same,relative viability,NCI-H1623; first compound 0.006325 µM,0.335
same,relative viability,NCI-H1623; first compound 0.02 µM,0.298
same,relative viability,NCI-H1437; first compound 0.0002 µM,0.767
same,relative viability,NCI-H1437; first compound 0.000632 µM,0.861
same,relative viability,NCI-H1437; first compound 0.002 µM,0.311
same,relative viability,NCI-H1437; first compound 0.006325 µM,0.162
same,relative viability,NCI-H1437; first compound 0.02 µM,0.114
CC(=O)O[C@@]12CO[C@@H]1C[C@H](O)[C@@]1(C)C(=O)[C@H](O)C3=C(C)[C@@H](OC(=O)[C@H](O)[C@@H](NC(=O)OC(C)(C)C)c4ccccc4)C[C@@](O)([C@@H](OC(=O)c4ccccc4)[C@H]21)C3(C)C [Docetaxel] + Cc1cc(Nc2cc(N3CCN(C)CC3)nc(Sc3ccc(NC(=O)C4CC4)cc3)n2)n[nH]1 [Tozasertib] (partner 0.1 µM),relative viability,NCI-H2085; first compound 0.0002 µM,0.743
same,relative viability,NCI-H2085; first compound 0.000632 µM,0.779
same,relative viability,NCI-H2085; first compound 0.002 µM,0.664
same,relative viability,NCI-H2085; first compound 0.006325 µM,0.481
same,relative viability,NCI-H2085; first compound 0.02 µM,0.322
same,relative viability,NCI-H1648; first compound 0.0002 µM,0.449
same,relative viability,NCI-H1648; first compound 0.000632 µM,0.509
same,relative viability,NCI-H1648; first compound 0.002 µM,0.28
same,relative viability,NCI-H1648; first compound 0.006325 µM,0.195
same,relative viability,NCI-H1648; first compound 0.02 µM,0.155
same,relative viability,NCI-H3122; first compound 0.0002 µM,0.339
same,relative viability,NCI-H3122; first compound 0.000632 µM,0.278
same,relative viability,NCI-H3122; first compound 0.002 µM,0.217
same,relative viability,NCI-H3122; first compound 0.006325 µM,0.179
same,relative viability,NCI-H3122; first compound 0.02 µM,0.122
same,relative viability,HCC-44; first compound 0.0002 µM,0.93
same,relative viability,HCC-44; first compound 0.000632 µM,0.442
same,relative viability,HCC-44; first compound 0.002 µM,0.41
same,relative viability,HCC-44; first compound 0.006325 µM,0.295
same,relative viability,HCC-44; first compound 0.02 µM,0.158
same,relative viability,HCC-366; first compound 0.0002 µM,0.097
same,relative viability,HCC-366; first compound 0.000632 µM,0.0628
same,relative viability,HCC-366; first compound 0.002 µM,0.0488
same,relative viability,HCC-366; first compound 0.006325 µM,0.0475
same,relative viability,HCC-366; first compound 0.02 µM,0.0231
same,relative viability,LOU-NH91; first compound 0.0002 µM,0.657
same,relative viability,LOU-NH91; first compound 0.000632 µM,0.574
same,relative viability,LOU-NH91; first compound 0.002 µM,0.39
same,relative viability,LOU-NH91; first compound 0.006325 µM,0.383
same,relative viability,LOU-NH91; first compound 0.02 µM,0.247
same,relative viability,LXF-289; first compound 0.0002 µM,0.172
same,relative viability,LXF-289; first compound 0.000632 µM,0.165
same,relative viability,LXF-289; first compound 0.006325 µM,0.125
same,relative viability,LXF-289; first compound 0.02 µM,0.114
same,relative viability,NCI-H1623; first compound 0.0002 µM,0.453
same,relative viability,NCI-H1623; first compound 0.000632 µM,0.367
same,relative viability,NCI-H1623; first compound 0.002 µM,0.409
same,relative viability,NCI-H1623; first compound 0.006325 µM,0.42
same,relative viability,NCI-H1623; first compound 0.02 µM,0.377
same,relative viability,NCI-H1437; first compound 0.0002 µM,0.354
same,relative viability,NCI-H1437; first compound 0.000632 µM,0.374
same,relative viability,NCI-H1437; first compound 0.002 µM,0.241
same,relative viability,NCI-H1437; first compound 0.006325 µM,0.273
same,relative viability,NCI-H1437; first compound 0.02 µM,0.201
Cc1sc2c(c1C)C(c1ccc(Cl)cc1)=N[C@@H](CC(=O)OC(C)(C)C)c1nnc(C)n1-2 [JQ1] + COc1cccc2cc(-c3nc([C@H]4CC[C@H](C(=O)O)CC4)n4ncnc(N)c34)[nH]c12 [OSI-027] (partner 0.5 µM),relative viability,NCI-H2085; first compound 0.04 µM,0.763
same,relative viability,NCI-H2085; first compound 0.1265 µM,0.519
same,relative viability,NCI-H2085; first compound 0.4 µM,0.574
same,relative viability,NCI-H2085; first compound 1.265 µM,0.368
same,relative viability,NCI-H2085; first compound 4 µM,0.323
same,relative viability,NCI-H1648; first compound 0.04 µM,0.285
same,relative viability,NCI-H1648; first compound 0.1265 µM,0.287
same,relative viability,NCI-H1648; first compound 0.4 µM,0.304
same,relative viability,NCI-H1648; first compound 1.265 µM,0.206
same,relative viability,NCI-H1648; first compound 4 µM,0.274
same,relative viability,NCI-H3122; first compound 0.04 µM,0.898
same,relative viability,NCI-H3122; first compound 0.4 µM,0.784
same,relative viability,NCI-H3122; first compound 1.265 µM,0.392
same,relative viability,NCI-H3122; first compound 4 µM,0.264
same,relative viability,HCC-44; first compound 0.04 µM,0.477
same,relative viability,HCC-44; first compound 0.1265 µM,0.293
same,relative viability,HCC-44; first compound 0.4 µM,0.484
same,relative viability,HCC-44; first compound 1.265 µM,0.288
same,relative viability,HCC-44; first compound 4 µM,0.214
same,relative viability,HCC-366; first compound 0.04 µM,0.958
same,relative viability,HCC-366; first compound 0.4 µM,0.783
same,relative viability,HCC-366; first compound 1.265 µM,0.336
same,relative viability,HCC-366; first compound 4 µM,0.31
same,relative viability,LOU-NH91; first compound 0.04 µM,0.721
same,relative viability,LOU-NH91; first compound 0.1265 µM,0.674
same,relative viability,LOU-NH91; first compound 0.4 µM,0.564
same,relative viability,LOU-NH91; first compound 1.265 µM,0.537
same,relative viability,LOU-NH91; first compound 4 µM,0.431
same,relative viability,LXF-289; first compound 0.04 µM,0.803
same,relative viability,LXF-289; first compound 0.1265 µM,0.695
same,relative viability,LXF-289; first compound 0.4 µM,0.614
same,relative viability,LXF-289; first compound 1.265 µM,0.297
same,relative viability,LXF-289; first compound 4 µM,0.173
same,relative viability,NCI-H1623; first compound 0.04 µM,0.446
same,relative viability,NCI-H1623; first compound 0.1265 µM,0.433
same,relative viability,NCI-H1623; first compound 0.4 µM,0.363
same,relative viability,NCI-H1623; first compound 1.265 µM,0.328
same,relative viability,NCI-H1623; first compound 4 µM,0.291
same,relative viability,NCI-H1437; first compound 0.04 µM,0.871
same,relative viability,NCI-H1437; first compound 0.1265 µM,0.809
same,relative viability,NCI-H1437; first compound 0.4 µM,0.599
same,relative viability,NCI-H1437; first compound 1.265 µM,0.36
same,relative viability,NCI-H1437; first compound 4 µM,0.319
